Measurements as given in US20240350464A1, “METHODS OF TREATING NEUROLOGICAL, MUSCULAR, AND PROLIFERATIVE DISORDERS” (Elixira Pharma AG, priority 2023, published 2024).
Each block holds one compound with its values, some of them ahead of it.

Legend:
Type in all cases: in vivo, Caenorhabditis elegans
N2 wild type worms [1] = assay: Microfluidic growth monitoring (worm size, area); settings: for effect on the worm's size (in words): vs negative control; for Variation (%) of worm area AUC: vs negative control DMSO 1%
Method: (§1) For the purpose of this study, the two compounds and four combinations of the two compounds were tested on a microfluidic platform. Worms were injected at the L4 larval stage, confined in dedicated microfluidic chambers, and continuously subjected to the presence of the two compounds, alone or in combination, from the L4 larval stage to the end of the experiment (corresponding to the day when the worm is dead). Acquisition of short sequences of videos for each microfluidic chamber containing worms were executed automatically every six (6) hours during the duration of the assay. The measurement of the motility, as well as the worm size to address compound toxicity (1) and the reproduction assessing longevity (2), were performed on the acquired sequences of videos by using an algorithm (3,4). Dead/live worms were identified automatically, based on the motility parameters. Each condition was tested in four technical replicates on different microfluidic cartridges. The experiment was performed once.
The proposed study was conducted according to the design and timeline depicted in FIG. 1. N2 wild-type C. elegans were grown on solid nematode growth medium (NGM) agar plates until the adult stage and harvested in complete S-Medium. Eggs from the adult population were hatched overnight in S-Medium and the resulting L1 progeny was recovered with a dedicated filter. L1 larvae were then collected through filtering in S-medium, seeded on NGM agar plates and grown for 48 hours (h) at 20° C. After 48 h, the worm population had reached the L4 larval stage. […]
Five time-resolved phenotypic readouts were extracted during the assays, including: • Worm size (area): this parameter was measured to evaluate the potential effects of the tested compound on growth retardation or larval arrest phenotype (7). • Sexual maturity: this parameter was measured to evaluate the potential effects of the tested compound on the timing required by a worm to reach the sexual maturity, determined by the observation of the first embryo (i.e., egg) produced in each microfluidic chamber. This phenotype was also indicative for a general sterility phenotype (i.e., no egg produced) (7). • Worm fertility: this parameter was measured to evaluate the potential effects of the tested compound on the average number of eggs produced by each worm during the reproductive span, calculated via the images acquired during the assay (7). • Reproductive span: this parameter was measured to evaluate the potential effects of the tested compound on the duration in which the worms have reproductive ability, determined by the observation of the last embryo produced in each microfluidic chamber. • Worm longevity: this parameter was measured to evaluate the potential effects of the tested compound on the worm's survival. […]

N2 wild type worms [2] = assay: Microfluidic motility monitoring (head, midbody, tail amplitude, bending frequency, velocity); settings: vs negative control; for overall motility: all motility parameters improved, in average: all 5 parameters
Method: as §1
(§2) The proposed study was conducted according to the design and timeline depicted in FIG. 1. N2 wild-type C. elegans were grown on solid nematode growth medium (NGM) agar plates until the adult stage and harvested in complete S-Medium. Eggs from the adult population were hatched overnight in S-Medium and the resulting L1 progeny was recovered with a dedicated filter. L1 larvae were then collected through filtering in S-medium, seeded on NGM agar plates and grown for 48 hours (h) at 20° C. […] L4 larvae were then collected through filtering in 5 mL S-medium. 20 to 30 L4 were injected in the microfluidic chips for each condition. Worms were then continuously fed on-chip via bacterial medium, for the duration of the entire experiment. Videos of each micro-chamber were acquired after the feeding during the whole experiment, every 6 hours.
(§3) The two compounds, Compound 1 and Compound 2, were suspended in DMSO at the stock concentration of 100 mM and 2.5 M, respectively (Table 1). Compounds were then mixed with the bacterial medium at the targeted concentrations, alone or in combination (Table 2). For all tested conditions, the final vehicle (DMSO) concentration was 1%. For the negative control condition, nematodes were fed with a bacterial medium containing only the vehicle solution (DMSO 1%). All stock solutions were stored at −20° C. and dilutions were made freshly on the day of starting the on-chip experiment and then every 72 h to replace the compound/bacterial medium solutions.
Worm motility is an additional phenotypic readout, where five parameters of the motility were assessed every 6 hours from acquired videos (2 seconds long, 10 frames per second for each video). At each time point, the values recorded for dead worms were excluded. The five motility parameters monitored included (3): • the amplitude of the movement at the head • the amplitude of the movement at the middle of the worm body • the amplitude of tail movement • the worm bending frequency • the worm velocity
These motility parameters were analyzed by phases (Area Under the Curve calculation following by an 2-way ANOVA tests), as defined below: • Phase 1: from day 1 to day 5 • Phase 2: from day 6 to day 10 • Phase 3: from day 11 to day 15 • Phase 4: from day 16 to day 20

N2 wild type worms [3] = assay: Microfluidic reproduction monitoring (egg laying start/end, reproductive span, eggs laid); settings: for Eggs laid (#): average number of eggs laid per worm within the timespan of egg laying; for Eggs laid (#) / Egg laying end / Reproductive span: concentrations per Table 2; for Egg laying start: time from injection of L4 larvae until first egg, continuous exposure, concentrations per Table 2 (Cpd 1 100 μM, Cpd 2 25 mM); for Egg laying start / Egg laying end / Reproductive span: mean; for Egg laying end: time from injection of L4 larvae until last egg; for Reproductive span: timespan of egg laying; for Variation (%) of egg laying end (time of the last egg laid) / Variation (%) of egg laying start / Variation (%) of eggs laid / Variation (%) of reproductive span (timespan of egg laying): vs negative control DMSO 1%
Method: as §1, §2, §3
Five time-resolved phenotypic readouts were extracted during the assays, including: • Worm size (area): this parameter was measured to evaluate the potential effects of the tested compound on growth retardation or larval arrest phenotype (7). • Sexual maturity: this parameter was measured to evaluate the potential effects of the tested compound on the timing required by a worm to reach the sexual maturity, determined by the observation of the first embryo (i.e., egg) produced in each microfluidic chamber.
Bar graphs represent mean+/−sem. p values were obtained by comparing the negative control (blue bars) versus the treatment via One-way ANOVA followed by Bonferroni's multiple comparisons test (p<0.05). * statistics versus the negative control (DMSO 1%).

effect on the worm's size (in words) (N2 wild type worms [1]): significant improvement
Structure (SMILES): CO[C@H]1C[C@@H]2CC[C@@H](C)[C@@](O)(O2)C(=O)C(=O)N2CCCC[C@H]2C(=O)O[C@H]([C@H](C)C[C@@H]2CC[C@@H](O)[C@H](OC)C2)CC(=O)[C@H](C)/C=C(\C)[C@@H](O)[C@@H](OC)C(=O)[C@H](C)C[C@H](C)/C=C/C=C/C=C/1C [Cpd 1, rapamycin]
Variation (%) of worm area AUC (N2 wild type worms [1]): +0.8%
overall motility: all motility parameters improved, in average (N2 wild type worms [2]): 14%
Eggs laid (#) (N2 wild type worms [3]): 96.6 #
Egg laying start (N2 wild type worms [3]): 29.59 h
Egg laying end (N2 wild type worms [3]): 144.0 h
Reproductive span (N2 wild type worms [3]): 114.4 h
Variation (%) of egg laying end (time of the last egg laid) (N2 wild type worms [3]): −3.1%
Variation (%) of egg laying start (N2 wild type worms [3]): −3.2%
Variation (%) of eggs laid (N2 wild type worms [3]): −32.9%
Variation (%) of reproductive span (timespan of egg laying) (N2 wild type worms [3]): −3.1%

effect on the worm's size (in words) (N2 wild type worms [1]): significant decrease
Structure (SMILES): CN(C)C(=N)N=C(N)N [Cpd 2, metformin]
Variation (%) of worm area AUC (N2 wild type worms [1]): −3.3%
motility in Phase 1 (in words) (N2 wild type worms [2]; Phase 1 (D0 to D5)): significant increase in almost all the motility parameters
motility in Phase 2 (in words) (N2 wild type worms [2]; Phase 2 (D6 to D10)): significant increase in almost all the motility parameters
motility in Phase 3 (in words) (N2 wild type worms [2]; Phase 3 (D11 to D15)): No effect on the motility
motility in Phase 4 (in words) (N2 wild type worms [2]; Phase 4 (D16 to D20)): No effect on the motility
overall motility: all motility parameters improved, in average (N2 wild type worms [2]): 22%
overall motility of the worms (in words) (N2 wild type worms [2]; 2-way ANOVA): significantly increased
Eggs laid (#) (N2 wild type worms [3]): 94.9 #
Egg laying start (N2 wild type worms [3]): 29.63 h
Egg laying end (N2 wild type worms [3]): 152.7 h
Reproductive span (N2 wild type worms [3]): 123.1 h
Variation (%) of egg laying end (time of the last egg laid) (N2 wild type worms [3]): +2.8%
Variation (%) of egg laying start (N2 wild type worms [3]): −3.1%
Variation (%) of eggs laid (N2 wild type worms [3]): −34.1%
Variation (%) of reproductive span (timespan of egg laying) (N2 wild type worms [3]): +4.3%
